According to patent US20060235076A1, “Medicinal composition for treating infection with drug-resistant staphylococcus aureus” (priority 2003, published 2006):
Values after ≈ are worked out from the molar mass of the structure shown. Read-outs that look alike come from different tables or passages of the source.

Assays:
Assay type in all cases: cell-based, Staphylococcus aureus
MRSA and MSSA [1] = experiment: Enhancing activity for the antibacterial activity of oxacillin by various gallates (agar plate dilution method, oxacillin MIC); settings: for MIC: Staphylococcus aureus, oxacillin alone
Experimental: According to the agar plate dilution method defined by Japan Society of Chemotherapy, MIC (Minimum inhibitory concentration) was determined. CAMHA was prepared by adding 50 mg/l of Ca-ion, 25 mg/l of Mg-ion, and 2% of NaCl to Mueller-Hinton II Agar (MHA), and it was used as a medium for use in the measurement of sensitivity. The bacterial liquid was incubated at 37° C. overnight and diluted to 10^6 CFU/ml with saline.

MRSA and MSSA [2] = experiment: Antibacterial activity of gallic acid, various gallates and multivalent phenol derivatives alone (agar plate dilution method, MIC); settings: for MIC50 / MIC: Staphylococcus aureus; for MIC: read-out: MIC alone
Procedure, shortened: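 Agar plate dilution MIC per Japan Society of Chemotherapy, on Mueller-Hinton II agar supplemented with 50 mg/l Ca-ion, 25 mg/l Mg-ion and 2% NaCl. Inoculum grown overnight at 37 °C and diluted in saline to 10^6 CFU/ml. Compounds tested alone.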

[3] = test system: MRSA COL and MRSA Strain No. 5; experiment: Potentiating effect of various gallates for antibacterial activity of oxacillin (MIC by broth microdilution method and FIC); settings: for FIC value: combination with oxacillin
Experimental: According to the broth microdilution method defined by Japan Society of Chemotherapy, MIC was determined. CAMHA was prepared by adding 50 mg/l of Ca-ion, 25 mg/l of Mg-ion, and 2% of NaCl to MHB (Mueller-Hinton Broth), and it was used as a medium for use in the measurement of sensitivity. In 96-well microplates 100 μl of the medium for use in the measurement of sensitivity containing drugs was dispensed. The bacterial liquid was incubated at 37° C. overnight, diluted with saline and added to the plate so that the final concentration of the bacteria was 5×10^5 CFU/well. […] FIC (fractional inhibitory concentration) was calculated from the result and the potency of the effect of the combination use was evaluated.

MRSA = experiment: Potentiating effect of galloyl quinic acid derivatives for the antibacterial activity of oxacillin (agar plate dilution method, MIC); settings: Staphylococcus aureus, read-out: Oxacillin MIC
Procedure, shortened: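 MIC by agar plate dilution (Japan Society of Chemotherapy) on Mueller-Hinton II agar with 50 mg/l Ca, 25 mg/l Mg and 2% NaCl, inoculum diluted to 10^6 CFU/ml; tara-derived galloyl quinic acids tested combined with oxacillin.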

CCCCCOC(=O)c1cc(O)c(O)c(O)c1 [Pentyl gallate, n-pentyl gallate]
effect of combination use with oxacillin (words) (MRSA and MSSA [1]; MRSA and MSSA): excellent potentiating effect
MIC alone (MRSA and MSSA [2]; MRSA #2): 62.5 µg/mL (≈ 260 µM)
MIC50 (MRSA and MSSA [2]): 62.5 µg/mL (≈ 260 µM)
MIC (MRSA and MSSA [2]; ATCC 6538 / MRSA / MSSA): 62.5 µg/mL (≈ 260 µM)
MIC (MRSA and MSSA [2]; COL): 62.5 µg/mL (≈ 260 µM)
MIC (MRSA and MSSA [2]; MRSA #1): 62.5 µg/mL (≈ 260 µM)
MIC (MRSA and MSSA [2]; MRSA #2): 67.5 µg/mL (≈ 281 µM)
MIC (MRSA and MSSA [2]; MRSA #3): 62.5 µg/mL (≈ 260 µM)
MIC (MRSA and MSSA [2]; MRSA #4): 62.5 µg/mL (≈ 260 µM)
MIC (MRSA and MSSA [2]; MRSA #5): 62.5 µg/mL (≈ 260 µM)
MIC (MRSA and MSSA [2]; MRSA #6): 62.5 µg/mL (≈ 260 µM)
MIC (MRSA and MSSA [2]; MRSA #7): 62.5 µg/mL (≈ 260 µM)
MIC (MRSA and MSSA [2]; MRSA #8): 62.5 µg/mL (≈ 260 µM)
MIC (MRSA and MSSA [2]; MRSA #9): 62.5 µg/mL (≈ 260 µM)
MIC (MRSA and MSSA [2]; MRSA #10): 62.5 µg/mL (≈ 260 µM)
MIC (MRSA and MSSA [2]; MRSA #12): 62.5 µg/mL (≈ 260 µM)
MIC (MRSA and MSSA [2]; MRSA #16): 62.5 µg/mL (≈ 260 µM)
MIC (MRSA and MSSA [2]; MRSA #17): 62.5 µg/mL (≈ 260 µM)
MIC (MRSA and MSSA [2]; MRSA #18): 62.5 µg/mL (≈ 260 µM)
MIC (MRSA and MSSA [2]; MRSA #20): 62.5 µg/mL (≈ 260 µM)
MIC (MRSA and MSSA [2]; MRSA #21): 62.5 µg/mL (≈ 260 µM)
MIC (MRSA and MSSA [2]; MRSA #22): 62.5 µg/mL (≈ 260 µM)
MIC (MRSA and MSSA [2]; MRSA #24): 62.5 µg/mL (≈ 260 µM)
MIC (MRSA and MSSA [2]; MSSA #1003): 62.5 µg/mL (≈ 260 µM)
MIC (MRSA and MSSA [2]; MSSA #1010): 62.5 µg/mL (≈ 260 µM)
MIC (MRSA and MSSA [2]; MSSA #1020): 62.5 µg/mL (≈ 260 µM)
MIC (MRSA and MSSA [2]; MSSA #1023): 62.5 µg/mL (≈ 260 µM)
MIC (MRSA and MSSA [2]; MSSA #1029): 62.5 µg/mL (≈ 260 µM)
MIC (MRSA and MSSA [2]; MSSA #1032): 62.5 µg/mL (≈ 260 µM)
FIC value ([3]; MRSA COL): 0.375
FIC value ([3]; MRSA Strain No. 5): 0.563

Cc1onc(-c2ccccc2)c1C(=O)N[C@@H]1C(=O)N2[C@@H]1SC(C)(C)[C@@H]2C(=O)O [Oxacillin, oxacillin]
MIC (MRSA and MSSA [1]; ATCC 6538 / MRSA / MSSA, ATCC 6538): 0.063 µg/mL
MIC (MRSA and MSSA [1]; MRSA 1): > 256 µg/mL
MIC (MRSA and MSSA [1]; MRSA 2): 256 µg/mL
MIC (MRSA and MSSA [1]; MRSA 3): 128 µg/mL
MIC (MRSA and MSSA [1]; MRSA 4): 256 µg/mL
MIC (MRSA and MSSA [1]; MRSA 5): 256 µg/mL
MIC (MRSA and MSSA [1]; MRSA 6): > 256 µg/mL
MIC (MRSA and MSSA [1]; MRSA 7): > 256 µg/mL
MIC (MRSA and MSSA [1]; MRSA 8): 128 µg/mL
MIC (MRSA and MSSA [1]; MRSA 9): 256 µg/mL
MIC (MRSA and MSSA [1]; MRSA 10): 128 µg/mL
MIC (MRSA and MSSA [1]; MRSA 12): > 256 µg/mL
MIC (MRSA and MSSA [1]; MRSA 16): 256 µg/mL
MIC (MRSA and MSSA [1]; MRSA 17): 256 µg/mL
MIC (MRSA and MSSA [1]; MRSA 18): > 256 µg/mL
MIC (MRSA and MSSA [1]; MRSA 20): 64 µg/mL
MIC (MRSA and MSSA [1]; MRSA 21): 64 µg/mL
MIC (MRSA and MSSA [1]; MRSA 22): 32 µg/mL
MIC (MRSA and MSSA [1]; MRSA 24): < 0.5 µg/mL
MIC (MRSA and MSSA [1]; MRSA COL): 256 µg/mL
MIC (MRSA and MSSA [1]; MSSA 1003): 0.25 µg/mL
MIC (MRSA and MSSA [1]; MSSA 1010): 0.25 µg/mL
MIC (MRSA and MSSA [1]; MSSA 1020): 1 µg/mL
MIC (MRSA and MSSA [1]; MSSA 1023): 2 µg/mL
MIC (MRSA and MSSA [1]; MSSA 1029): 4 µg/mL
MIC (MRSA and MSSA [1]; MSSA 1032): 0.13 µg/mL
MIC (MRSA; ATCC 6538 / MRSA, ATCC 6538, oxacillin alone (—)): 0.063 µg/mL
MIC (MRSA; MRSA / MSSA, MSSA 1003, oxacillin alone (—)): 0.25 µg/mL
MIC (MRSA; MRSA / MSSA, MSSA 1010, oxacillin alone (—)): 0.25 µg/mL
MIC (MRSA; MRSA / MSSA, MSSA 1032, oxacillin alone (—)): 0.13 µg/mL
MIC (MRSA; MRSA, MRSA 1, oxacillin alone (—)): > 256 µg/mL
MIC (MRSA; MRSA, MRSA 2, oxacillin alone (—)): 256 µg/mL
MIC (MRSA; MRSA, MRSA 3, oxacillin alone (—)): 128 µg/mL
MIC (MRSA; MRSA, MRSA 4, oxacillin alone (—)): 256 µg/mL
MIC (MRSA; MRSA, MRSA 5, oxacillin alone (—)): 256 µg/mL
MIC (MRSA; MRSA, MRSA 6, oxacillin alone (—)): > 256 µg/mL
MIC (MRSA; MRSA, MRSA 7, oxacillin alone (—)): > 256 µg/mL
MIC (MRSA; MRSA, MRSA 8, oxacillin alone (—)): 128 µg/mL
MIC (MRSA; MRSA, MRSA 9, oxacillin alone (—)): 256 µg/mL
MIC (MRSA; MRSA, MRSA 10, oxacillin alone (—)): 128 µg/mL
MIC (MRSA; MRSA, MRSA 12, oxacillin alone (—)): > 256 µg/mL
MIC (MRSA; MRSA, MRSA 16, oxacillin alone (—)): 256 µg/mL
MIC (MRSA; MRSA, MRSA 17, oxacillin alone (—)): 256 µg/mL
MIC (MRSA; MRSA, MRSA 18, oxacillin alone (—)): > 256 µg/mL
MIC (MRSA; MRSA, MRSA 20, oxacillin alone (—)): 64 µg/mL
MIC (MRSA; MRSA, MRSA 21, oxacillin alone (—)): 64 µg/mL
MIC (MRSA; MRSA, MRSA 22, oxacillin alone (—)): 32 µg/mL
MIC (MRSA; MRSA, MRSA COL, oxacillin alone (—)): 256 µg/mL
MIC (MRSA; MRSA): 0.13 µg/mL

CCCCOC(=O)c1cc(O)c(O)c(O)c1 [Butyl gallate, n-butyl gallate]
MIC (MRSA and MSSA [2]; ATCC 6538 / MRSA / MSSA, ATCC6538): 125 µg/mL (≈ 553 µM)
MIC (MRSA and MSSA [2]; COL): 125 µg/mL (≈ 553 µM)
MIC (MRSA and MSSA [2]; MRSA #1): 125 µg/mL (≈ 553 µM)
MIC (MRSA and MSSA [2]; MRSA #2): 125 µg/mL (≈ 553 µM)
MIC (MRSA and MSSA [2]; MRSA #3): 125 µg/mL (≈ 553 µM)
MIC (MRSA and MSSA [2]; MRSA #4): 125 µg/mL (≈ 553 µM)
MIC (MRSA and MSSA [2]; MRSA #5): 125 µg/mL (≈ 553 µM)
MIC (MRSA and MSSA [2]; MRSA #6): 62.5 µg/mL (≈ 276 µM)
MIC (MRSA and MSSA [2]; MRSA #7): 125 µg/mL (≈ 553 µM)
MIC (MRSA and MSSA [2]; MRSA #8): 125 µg/mL (≈ 553 µM)
MIC (MRSA and MSSA [2]; MRSA #9): 62.5 µg/mL (≈ 276 µM)
MIC (MRSA and MSSA [2]; MRSA #10): 62.5 µg/mL (≈ 276 µM)
MIC (MRSA and MSSA [2]; MRSA #12): 125 µg/mL (≈ 553 µM)
MIC (MRSA and MSSA [2]; MRSA #16): 125 µg/mL (≈ 553 µM)
MIC (MRSA and MSSA [2]; MRSA #17): 125 µg/mL (≈ 553 µM)
MIC (MRSA and MSSA [2]; MRSA #18): 125 µg/mL (≈ 553 µM)
MIC (MRSA and MSSA [2]; MRSA #20): 125 µg/mL (≈ 553 µM)
MIC (MRSA and MSSA [2]; MRSA #21): 125 µg/mL (≈ 553 µM)
MIC (MRSA and MSSA [2]; MRSA #22): 125 µg/mL (≈ 553 µM)
MIC (MRSA and MSSA [2]; MRSA #24): 125 µg/mL (≈ 553 µM)
MIC (MRSA and MSSA [2]; MSSA #1003): 125 µg/mL (≈ 553 µM)
MIC (MRSA and MSSA [2]; MSSA #1010): 125 µg/mL (≈ 553 µM)
MIC (MRSA and MSSA [2]; MSSA #1020): 125 µg/mL (≈ 553 µM)
MIC (MRSA and MSSA [2]; MSSA #1023): 125 µg/mL (≈ 553 µM)
MIC (MRSA and MSSA [2]; MSSA #1029): 62.5 µg/mL (≈ 276 µM)
MIC (MRSA and MSSA [2]; MSSA #1032): 125 µg/mL (≈ 553 µM)
MIC50 (MRSA and MSSA [2]; compound alone, over all strains of Table 3-1, read-out: MIC50): 125 µg/mL (≈ 553 µM)
effect of the combination use with oxacillin by FIC values ([3]; COL Strain and Strain No. 5): most potent effect of the combination use
FIC value ([3]; MRSA COL): 0.129
FIC value ([3]; MRSA Strain No. 5): 0.254
